According to US4153688A, “Trifluoromethylated oligopeptides” (Delalande S.A., priority 1977, dated 1979):
Structures can show the parent of a compound that is named as a salt. Where two headings read alike, the source gives them in different places. Square brackets hold non-standard residues; d marks the D form. Peptide text beside a SMILES is read from it. * marks the point of attachment. pNA = O=[N+]([O-])c1ccc(N*)cc1; 4Abz = Nc1ccc(C(=O)O)cc1; Tfa = O=C(C(F)(F)F)*; NHPh = c1ccc(N*)cc1

Tests used:
[1] = target: T1, porcine pancreatic elastase (Sus scrofa, UniProt P00772); experiment: Inhibition constant KI (Dixon method) on pancreatic elastase, hydrolysis of succinyl-tri-L-alanine-paranitroanilide; type: biochemical; settings: 25° C., TRIS 0.2 M buffer, pH 8; absence of any organic solvent; read-out: K T^ (a) pancreatic
Excerpt: (§1) This latter was purified according to the Travis method (Baugh, R. J. and Travis, J. (1976), Biochemistry, 15, 4, 836). The method of study used is the conventional method of Dixon (Dixon, M., (1953), Biochemical Journal, 55, 1970) for measuring the inhibition constants KI of the compounds of the invention with regard to the hydrolysis reactions of the succinyl-tri-L-alanine-paranitroanilide catalysed by the two above elastases (Bieth J., Spiess B. and Wermuth C. G. (1974) Biochemical Medicine, 11, 350). In certain cases (leucocytal elastase) the inhibitory power of the compounds studied was measured by means of the I50 concentration of these compounds inducing 50% inhibition of the hydrolysis of the succinyl-tri-alanine-paranitroanilide at a 10^-3 M concentration catalysed by the enzyme. […] All the measurements were made at 25° C. in a 0.2 Molar buffer solution of tri-hydroxymethyl-aminomethane at pH 8.
(§2) Table E below lists the results obtained for the compounds of formula (I) as well as the reference compounds (A), acetyl-L-prolyl-L-alanyl-L-prolyl-L-alaninal, for the pancreatic elastase (Thompson, R. C., Biochemistry (1973), 17, 1, 47) and (B), oleic acid, for the leucocytal elastase (Ashe, B. M. and Zimmerman, M. (1977), Biochem. Biophys. Res. Comm., 75, 194).

[2] = target: T2, leucocytal elastase (Homo sapiens, UniProt P08246); experiment: I50 on leucocytal elastase, hydrolysis of succinyl-tri-alanine-paranitroanilide at 10^-3 M; type: biochemical; settings: 25° C., TRIS 0.2 M buffer, pH 8; substrate 10^-3 M; in the presence of 50 % dimethylformamide (footnote); read-out: T 50^ (b) leucocytal
T2 construct: This latter was purified according to the Travis method; from tissue
T2 sequence (P08246 30-267): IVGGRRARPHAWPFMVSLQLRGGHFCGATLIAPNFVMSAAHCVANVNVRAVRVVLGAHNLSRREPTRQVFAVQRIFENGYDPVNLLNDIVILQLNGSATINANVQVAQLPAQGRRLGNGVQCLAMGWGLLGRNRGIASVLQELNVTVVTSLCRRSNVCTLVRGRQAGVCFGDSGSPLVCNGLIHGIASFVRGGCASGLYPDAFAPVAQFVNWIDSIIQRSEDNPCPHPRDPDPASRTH
Excerpt: as §1

[3] = target: T1, porcine pancreatic elastase; settings: reference compound, Thompson, Biochemistry (1973); read-out: K T^ (a) pancreatic; cited from earlier work
[4] = target: T2, leucocytal elastase; settings: reference compound, Ashe and Zimmerman (1977); read-out: K T^ (a) leucocytal; cited from earlier work
[5] = system: mice; experiment: Intravenous toxicity on mice; type: in vivo; settings: intravenously, 20, 40 and 80 mg/kg, solution in physiological serum containing 10% DMF
Protocol: Furthermore, the toxicity of the compounds of the invention were studied intravenously on mice. More exactly, these compounds were tested in the form of a solution in physiological serum containing 10% DMF.
It is to be noted that it was not possible to use doses higher than those indicated above, because of the solubility limit of compound 3.

[6] = target: T2, leucocytal elastase; experiment: Inhibition constant KI (Dixon method) on leucocytal elastase, hydrolysis of succinyl-tri-L-alanine-paranitroanilide; type: biochemical; settings: 25° C., TRIS 0.2 M buffer, pH 8; absence of any organic solvent; read-out: K T^ (a) leucocytal
Excerpt: as §1, §2

T1 sequence (P00772 27-266): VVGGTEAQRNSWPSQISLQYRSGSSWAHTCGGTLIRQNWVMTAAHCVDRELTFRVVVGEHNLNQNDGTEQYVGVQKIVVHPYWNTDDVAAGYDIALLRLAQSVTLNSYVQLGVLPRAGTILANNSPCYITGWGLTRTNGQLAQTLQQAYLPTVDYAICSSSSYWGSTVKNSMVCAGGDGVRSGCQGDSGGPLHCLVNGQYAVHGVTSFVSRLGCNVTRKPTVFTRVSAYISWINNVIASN

Ki [1]	IC50 [2]	Ki [6]	Compound	Ki [3]	Ki [4]	mortality [5]
270 nM	400000 nM	–	CC(NC(=O)C(F)(F)F)C(=O)NC(C(=O)Nc1ccccc1)C(F)(F)F (mixture of isomers) [compound 17]	–	–	–
–	–	–	CC(=O)N1CCC[C@H]1C(=O)N[C@@H](C)C(=O)N1CCC[C@H]1C(=O)N[C@@H](C)C=O [A, acetyl-L-prolyl-L-alanyl-L-prolyl-L-alaninal] (Ac-PAPA-aldehyde)	800 nM	–	–
–	–	–	CCCCCCCC/C=C\CCCCCCCC(=O)O [B, oleic acid]	–	9000 nM	–
250 nM	250000 nM	–	C[C@H](NC(=O)[C@H](C)NC(=O)C(F)(F)F)C(=O)Nc1ccccc1 [compound 1] (Tfa-Ala-Ala-NHPh)	–	–	–
110 nM	100000 nM	–	C[C@H](NC(=O)[C@H](C)NC(=O)C(F)(F)F)C(=O)Nc1ccc(Cl)cc1 [compound 2]	–	–	–
380 nM	150000 nM	–	C[C@H](NC(=O)[C@H](C)NC(=O)C(F)(F)F)C(=O)Nc1cccc([N+](=O)[O-])c1 [compound 4]	–	–	–
90 nM	56000 nM	–	C[C@H](NC(=O)[C@H](C)NC(=O)C(F)(F)F)C(=O)Nc1ccc(C(F)(F)F)cc1 [compound 5]	–	–	–
800 nM	120000 nM	–	C[C@H](NC(=O)[C@H](C)NC(=O)C(F)(F)F)C(=O)Nc1cccc(C(F)(F)F)c1 [compound 6]	–	–	–
290 nM	30000 nM	–	COc1ccc(NC(=O)[C@H](C)NC(=O)[C@H](C)NC(=O)C(F)(F)F)cc1 [compound 7]	–	–	–
550 nM	12000 nM	–	CC(C)c1ccc(NC(=O)[C@H](C)NC(=O)[C@H](C)NC(=O)C(F)(F)F)cc1 [compound 8]	–	–	–
110 nM	100000 nM	–	C[C@H](NC(=O)[C@H](C)NC(=O)C(F)(F)F)C(=O)Nc1ccc(C#N)cc1 [compound 9]	–	–	–
200 nM	470000 nM	–	C[C@H](NC(=O)[C@H](C)NC(=O)C(F)(F)F)C(=O)Nc1ccc(C(=O)O)cc1 [compound 10] (Tfa-Ala-Ala-[4Abz]-OH)	–	–	–
40 nM	150000 nM	44000 nM	C[C@H](NC(=O)[C@H](CCCCN)NC(=O)C(F)(F)F)C(=O)Nc1ccccc1 [compound 11] (Tfa-Lys-Ala-NHPh)	–	–	–
25 nM	35000 nM	3000 nM	C[C@H](NC(=O)[C@H](CCCCN)NC(=O)C(F)(F)F)C(=O)Nc1ccc(C(F)(F)F)cc1 [compound 12]	–	–	–
30 nM	50000 nM	14000 nM	Cc1ccc(NC(=O)[C@H](C)NC(=O)[C@H](CCCCN)NC(=O)C(F)(F)F)cc1 [compound 13]	–	–	–
50 nM	5700 nM	700 nM	CC(C)c1ccc(NC(=O)[C@H](C)NC(=O)[C@H](CCCCN)NC(=O)C(F)(F)F)cc1 [compound 14]	–	–	–
32 nM	9000 nM	2500 nM	CC(=O)c1ccc(NC(=O)[C@H](C)NC(=O)[C@H](CCCCN)NC(=O)C(F)(F)F)cc1 [compound 16]	–	–	–
400 nM	150000 nM	–	C[C@H](NC(=O)C(F)(F)F)C(=O)N[C@@H](CCCCN)C(=O)Nc1ccc(C(F)(F)F)cc1 [compound 19]	–	–	–

Compound	Ki [1]	IC50 [2]	Ki [6]	Ki [3]	Ki [4]	mortality [5]
C[C@H](NC(=O)[C@H](C)NC(=O)C(F)(F)F)C(=O)Nc1ccc([N+](=O)[O-])cc1 [Code number 3, N-trifluoroacetyl-L-alanyl-L-alanyl-p-nitroanilide] (Tfa-Ala-Ala-pNA)	120 nM	78000 nM	–	–	–	no case of mortality was observed
